Measurements: patent publication US5084563A, “Crystalline 2-O-α-D-glucopyranosyl-L-ascorbic acid, and its preparation and uses” (priority 1989, dated 1992)

What was measured:
[1] = Physical properties: hygroscopicity, deliquescence, loss on drying; assay type: physicochemical; details: for Hygroscopicity and deliquescence: ambient conditions
Procedure: (12) Physical properties and color: Colorless and transparent crystal. […] Loss on drying at 130° C. for 2 hours is less than 0.5 w/w %. FIG. 5 is the microscopic view of a crystal growing in a supersaturated solution.

physchem = assay type: physicochemical; details: for remaining at 1 h, 70 µM / remaining at 2 h, 70 µM / remaining at 4 h, 70 µM / remaining at 18 h, 70 µM / remaining at 24 h, 70 µM: aqueous solution; for Remaining ratio: 0 min, 70 uM
Procedure: 2-O-α-D-Glucosyl-L-ascorbic acid was compared respectively to the 6-O-α-D-glucosyl-L-ascorbic acid disclosed in Japanese Patent Publication No. 38,158/73, and L-ascorbic acid for their stability in aqueous solution. More particularly, each sample was adjusted to a concentration of 70 micromoles and to pH 7.0 or 2.0, placed in a cuvette, and measured for its absorbance at either 260 nm and pH 7.0 or at 245 nm and pH 2.0 while keeping the solution at 45° C. The remaining ratio (%) was calculated with the absorbance.

Dissociation constant = assay type: physicochemical
Description: (10) Dissociation constant The pKa is 3.0.

dd mice = experiment: Acute toxicity, oral; assay type: in vivo
Description: A crystalline 2-O-α-D-glucopyranosyl-L-ascorbic acid specimen, prepared by the method in Experiment 1, was orally administered to 7 week-old dd mice for acute toxicity test. As the result, no mouse died when administered with up to […] of the specimen, and higher dose was difficult.

Solubility in water = assay type: physicochemical; details: 25° C.
Solubility in solvents = assay type: physicochemical
[2] = Coloring reaction: direct reducing activity; assay type: biochemical; details: 2,6-dichlorophenolindophenol
α-glucosidase = experiment: Hydrolysis by α-glucosidase; assay type: biochemical; details: products at molar ratio 1:1
Procedure: (§1) (14) Structual element: Hydrolyzable by α-glucosidase or by treatment with 1N hydrochloric acid at 100° C. for 5 minutes to form L-ascorbic acid and D-glucose at a molar ratio of 1:1.

[3] = Hydrolysis with 1N hydrochloric acid; assay type: physicochemical; details: 100° C., 5 minutes, products at molar ratio 1:1
Procedure: as §1

remaining at 1 h, 70 µM (physchem; pH 2)	remaining at 2 h, 70 µM (physchem; pH 2)	remaining at 4 h, 70 µM (physchem; pH 2)	remaining at 18 h, 70 µM (physchem; pH 2)	remaining at 24 h, 70 µM (physchem; pH 2)	remaining at 1 h, 70 µM (physchem; pH 7)	remaining at 2 h, 70 µM (physchem; pH 7)	remaining at 4 h, 70 µM (physchem; pH 7)	remaining at 18 h, 70 µM (physchem; pH 7)	remaining at 24 h, 70 µM (physchem; pH 7)	Remaining ratio (physchem; pH 2)	Remaining ratio (physchem; pH 7)	Structure (SMILES)	Hygroscopicity and deliquescence [1]	also measured
–	–	–	–	–	–	–	–	–	–	–	–	O=C1O[C@H]([C@@H](O)CO)C(O)=C1O[C@H]1O[C@H](CO)[C@@H](O)[C@H](O)[C@H]1O [amorphous 2-O-α-D-glucopyranosyl-L-ascorbic acid] [reference compound]	strongly hygroscopic	–
99%	98%	90%	25%	12%	88%	72%	43%	7%	4%	100%	100%	O=C1O[C@H]([C@@H](O)CO[C@H]2O[C@H](CO)[C@@H](O)[C@H](O)[C@H]2O)C(O)=C1O [6GAsA, 6-O-α-D-glucosyl-L-ascorbic acid]	–	–
98%	95%	88%	12%	4%	80%	61%	32%	1%	1%	100%	100%	O=C1O[C@H]([C@@H](O)CO)C(O)=C1O [AsA, L-ascorbic acid]	–	–

Structure (SMILES)	remaining at 1 h, 70 µM (physchem; pH 2)	remaining at 2 h, 70 µM (physchem; pH 2)	remaining at 4 h, 70 µM (physchem; pH 2)	remaining at 18 h, 70 µM (physchem; pH 2)	remaining at 24 h, 70 µM (physchem; pH 2)	remaining at 1 h, 70 µM (physchem; pH 7)	remaining at 2 h, 70 µM (physchem; pH 7)	remaining at 4 h, 70 µM (physchem; pH 7)	remaining at 18 h, 70 µM (physchem; pH 7)	remaining at 24 h, 70 µM (physchem; pH 7)	Remaining ratio (physchem; pH 2)	Remaining ratio (physchem; pH 7)	Hygroscopicity and deliquescence [1]	also measured
O=C1O[C@H]([C@@H](O)CO)C(O)=C1O[C@H]1O[C@H](CO)[C@@H](O)[C@H](O)[C@H]1O [2-O-α-D-glucopyranosyl-L-ascorbic acid]	100%	100%	100%	100%	100%	100%	100%	100%	100%	100%	–	–	–	pKa (Dissociation constant): 3
O=C1O[C@H]([C@@H](O)CO)C(O)=C1O[C@H]1O[C@H](CO)[C@@H](O)[C@H](O)[C@H]1O [crystalline 2-O-α-D-glucopyranosyl-L-ascorbic acid]	–	–	–	–	–	–	–	–	–	–	100%	100%	Free of hygroscopicity and deliquescence	Dose up to which no mouse died (dd mice; 7 week-old dd mice, higher dose was difficult): up to 5 g; Mortality (dd mice; 7 week-old dd mice, up to 5 g of the specimen): no mouse died; Toxicity (dd mice; dd mice, overall conclusion): extremely low in toxicity; Solubility (Solubility in water): One hundred and twenty-five; Solubility in solvents (Solubility in solvents; 0.1N acetic acid): Readily soluble; Solubility in solvents (Solubility in solvents; 0.1N sodium hydroxide): Readily soluble; Solubility in solvents (Solubility in solvents; benzene): insoluble; Solubility in solvents (Solubility in solvents; chloroform): insoluble; Solubility in solvents (Solubility in solvents; ethanol): soluble; Solubility in solvents (Solubility in solvents; ether): insoluble; Solubility in solvents (Solubility in solvents; ethyl acetate): insoluble; Solubility in solvents (Solubility in solvents; methanol): soluble; Solubility in solvents (Solubility in solvents; water): Readily soluble; Loss on drying ([1]; 130° C., 2 hours): less than 0.5 w/w %; Direct reducing activity [2]: no direct reducing activity; Hydrolysis to L-ascorbic acid and D-glucose (α-glucosidase): Hydrolyzable; Hydrolysis to L-ascorbic acid and D-glucose [3]: Hydrolyzable
